From paper PMC12670405, “Second-Generation AURKA-Targeting PROTACs: Structural Optimization toward in Vivo Degradation in Neuroblastoma” (Journal of Medicinal Chemistry, 2025)

Tests used:
Assay in all cases: KINOMEscan scanMAX
Type in all cases: binding
Conditions in all cases: read-out: Percent Control
ADCK4 = target: T1, ADCK4 (Homo sapiens, UniProt Q96D53)
T1 construct: purchased Eurofins Discovery (DiscoverX KINOMEscan scanMAX)
Protocol: (§1) The kinome-wide binding assay was performed by Eurofins Discovery using the scanMAX screening platform. More information can be found on the Eurofins Discovery Web site.

BIKE = target: T2, BIKE (Homo sapiens, UniProt Q9NSY1)
T2 construct: purchased Eurofins Discovery (DiscoverX KINOMEscan scanMAX)
Protocol: as §1

BRSK1 = target: T3, BRSK1 (Homo sapiens, UniProt Q8TDC3)
T3 construct: purchased Eurofins Discovery (DiscoverX KINOMEscan scanMAX)
Protocol: as §1

BRSK2 = target: T4, BRSK2 (Homo sapiens, UniProt Q8IWQ3)
T4 construct: purchased Eurofins Discovery (DiscoverX KINOMEscan scanMAX)
Protocol: as §1

CAMK1G = target: T5, CAMK1G (Homo sapiens, UniProt Q96NX5)
T5 construct: purchased Eurofins Discovery (DiscoverX KINOMEscan scanMAX)
Protocol: as §1

CHEK2 = target: T6, CHEK2 (Homo sapiens, UniProt O96017)
T6 construct: purchased Eurofins Discovery (DiscoverX KINOMEscan scanMAX)
Protocol: as §1

CLK4 = target: T7, CLK4 (Homo sapiens, UniProt Q9HAZ1)
T7 construct: purchased Eurofins Discovery (DiscoverX KINOMEscan scanMAX)
Protocol: as §1

CSNK2A2 = target: T8, CSNK2A2 (Homo sapiens, UniProt P19784)
T8 construct: purchased Eurofins Discovery (DiscoverX KINOMEscan scanMAX)
Protocol: as §1

EGFR(G719S) = target: T9, EGFR(G719S) (Homo sapiens, UniProt P00533, G719S)
T9 construct: purchased Eurofins Discovery (DiscoverX KINOMEscan scanMAX)
Protocol: as §1

EPHA1 = target: T10, EPHA1 (Homo sapiens, UniProt P21709)
T10 construct: purchased Eurofins Discovery (DiscoverX KINOMEscan scanMAX)
Protocol: as §1

EPHA5 = target: T11, EPHA5 (Homo sapiens, UniProt P54756)
T11 construct: purchased Eurofins Discovery (DiscoverX KINOMEscan scanMAX)
Protocol: as §1

EPHB1 = target: T12, EPHB1 (Homo sapiens, UniProt P54762)
T12 construct: purchased Eurofins Discovery (DiscoverX KINOMEscan scanMAX)
Protocol: as §1

EPHB2 = target: T13, EPHB2 (Homo sapiens, UniProt P29323)
T13 construct: purchased Eurofins Discovery (DiscoverX KINOMEscan scanMAX)
Protocol: as §1

ERN1 = target: T14, ERN1 (Homo sapiens, UniProt O75460)
T14 construct: purchased Eurofins Discovery (DiscoverX KINOMEscan scanMAX)
Protocol: as §1

FAK = target: T15, FAK (Homo sapiens, UniProt Q05397)
T15 construct: purchased Eurofins Discovery (DiscoverX KINOMEscan scanMAX)
Protocol: as §1

FLT3(D835Y) = target: T16, FLT3(D835Y) (Homo sapiens, UniProt P36888, D835Y)
T16 construct: purchased Eurofins Discovery (DiscoverX KINOMEscan scanMAX)
Protocol: as §1

GAK = target: T17, GAK (Homo sapiens, UniProt O14976)
T17 construct: purchased Eurofins Discovery (DiscoverX KINOMEscan scanMAX)
Protocol: as §1

HIPK2 = target: T18, HIPK2 (Homo sapiens, UniProt Q9H2X6)
T18 construct: purchased Eurofins Discovery (DiscoverX KINOMEscan scanMAX)
Protocol: as §1

KIT(D816V) = target: T19, KIT(D816V) (Homo sapiens, UniProt P10721, D816V)
T19 construct: purchased Eurofins Discovery (DiscoverX KINOMEscan scanMAX)
Protocol: as §1

LYN = target: T20, LYN (Homo sapiens, UniProt P07948)
T20 construct: purchased Eurofins Discovery (DiscoverX KINOMEscan scanMAX)
Protocol: as §1

MAK = target: T21, MAK (Homo sapiens, UniProt P20794)
T21 construct: purchased Eurofins Discovery (DiscoverX KINOMEscan scanMAX)
Protocol: as §1

MAP3K1 = target: T22, MAP3K1 (Homo sapiens, UniProt Q13233)
T22 construct: purchased Eurofins Discovery (DiscoverX KINOMEscan scanMAX)
Protocol: as §1

MEK5 = target: T23, MEK5 (Homo sapiens, UniProt Q13163)
T23 construct: purchased Eurofins Discovery (DiscoverX KINOMEscan scanMAX)
Protocol: as §1

PAK7 = target: T24, PAK7 (Homo sapiens, UniProt Q9P286)
T24 construct: purchased Eurofins Discovery (DiscoverX KINOMEscan scanMAX)
Protocol: as §1

PDGFRB = target: T25, PDGFRB (Homo sapiens, UniProt P09619)
T25 construct: purchased Eurofins Discovery (DiscoverX KINOMEscan scanMAX)
Protocol: as §1

PIM2 = target: T26, PIM2 (Homo sapiens, UniProt Q9P1W9)
T26 construct: purchased Eurofins Discovery (DiscoverX KINOMEscan scanMAX)
Protocol: as §1

PRKG2 = target: T27, PRKG2 (Homo sapiens, UniProt Q13237)
T27 construct: purchased Eurofins Discovery (DiscoverX KINOMEscan scanMAX)
Protocol: as §1

RIPK5 = target: T28, RIPK5 (Homo sapiens, UniProt Q6XUX3)
T28 construct: purchased Eurofins Discovery (DiscoverX KINOMEscan scanMAX)
Protocol: as §1

STK33 = target: T29, STK33 (Homo sapiens, UniProt Q9BYT3)
T29 construct: purchased Eurofins Discovery (DiscoverX KINOMEscan scanMAX)
Protocol: as §1

TIE2 = target: T30, TIE2 (Homo sapiens, UniProt Q02763)
T30 construct: purchased Eurofins Discovery (DiscoverX KINOMEscan scanMAX)
Protocol: as §1

TRKB = target: T31, TRKB (Homo sapiens, UniProt Q16620)
T31 construct: purchased Eurofins Discovery (DiscoverX KINOMEscan scanMAX)
Protocol: as §1

TSSK1B = target: T32, TSSK1B (Homo sapiens, UniProt Q9BXA7)
T32 construct: purchased Eurofins Discovery (DiscoverX KINOMEscan scanMAX)
Protocol: as §1

TTK = target: T33, TTK (Homo sapiens, UniProt P33981)
T33 construct: purchased Eurofins Discovery (DiscoverX KINOMEscan scanMAX)
Protocol: as §1

VRK2 = target: T34, VRK2 (Homo sapiens, UniProt Q86Y07)
T34 construct: purchased Eurofins Discovery (DiscoverX KINOMEscan scanMAX)
Protocol: as §1

WEE1 = target: T35, WEE1 (Homo sapiens, UniProt P30291)
T35 construct: purchased Eurofins Discovery (DiscoverX KINOMEscan scanMAX)
Protocol: as §1

T19 sequence (P10721 26-976 D816V): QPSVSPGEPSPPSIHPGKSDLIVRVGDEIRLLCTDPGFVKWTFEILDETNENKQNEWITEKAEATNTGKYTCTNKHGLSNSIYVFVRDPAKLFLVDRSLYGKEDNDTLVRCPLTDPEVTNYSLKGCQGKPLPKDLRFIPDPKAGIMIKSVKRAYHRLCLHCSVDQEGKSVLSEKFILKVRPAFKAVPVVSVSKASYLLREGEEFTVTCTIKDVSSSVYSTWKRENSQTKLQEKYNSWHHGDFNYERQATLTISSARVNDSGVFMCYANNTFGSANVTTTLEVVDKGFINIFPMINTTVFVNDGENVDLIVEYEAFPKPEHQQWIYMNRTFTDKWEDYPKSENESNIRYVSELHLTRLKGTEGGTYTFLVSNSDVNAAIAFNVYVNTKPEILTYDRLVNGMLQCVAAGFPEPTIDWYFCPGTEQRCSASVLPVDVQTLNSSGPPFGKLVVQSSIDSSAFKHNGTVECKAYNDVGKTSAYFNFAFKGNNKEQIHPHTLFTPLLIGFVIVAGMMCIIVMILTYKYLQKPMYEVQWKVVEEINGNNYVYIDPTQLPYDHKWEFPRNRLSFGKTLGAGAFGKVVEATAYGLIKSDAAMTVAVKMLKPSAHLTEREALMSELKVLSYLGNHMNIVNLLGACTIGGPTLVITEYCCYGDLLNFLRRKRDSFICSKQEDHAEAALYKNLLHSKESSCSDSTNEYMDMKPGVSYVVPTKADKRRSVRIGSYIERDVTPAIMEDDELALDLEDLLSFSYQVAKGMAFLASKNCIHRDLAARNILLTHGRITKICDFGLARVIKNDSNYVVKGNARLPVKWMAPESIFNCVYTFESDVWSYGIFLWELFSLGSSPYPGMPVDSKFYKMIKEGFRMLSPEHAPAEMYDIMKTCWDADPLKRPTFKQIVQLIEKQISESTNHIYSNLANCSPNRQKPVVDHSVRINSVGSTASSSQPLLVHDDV
T30 sequence (Q02763 23-1124): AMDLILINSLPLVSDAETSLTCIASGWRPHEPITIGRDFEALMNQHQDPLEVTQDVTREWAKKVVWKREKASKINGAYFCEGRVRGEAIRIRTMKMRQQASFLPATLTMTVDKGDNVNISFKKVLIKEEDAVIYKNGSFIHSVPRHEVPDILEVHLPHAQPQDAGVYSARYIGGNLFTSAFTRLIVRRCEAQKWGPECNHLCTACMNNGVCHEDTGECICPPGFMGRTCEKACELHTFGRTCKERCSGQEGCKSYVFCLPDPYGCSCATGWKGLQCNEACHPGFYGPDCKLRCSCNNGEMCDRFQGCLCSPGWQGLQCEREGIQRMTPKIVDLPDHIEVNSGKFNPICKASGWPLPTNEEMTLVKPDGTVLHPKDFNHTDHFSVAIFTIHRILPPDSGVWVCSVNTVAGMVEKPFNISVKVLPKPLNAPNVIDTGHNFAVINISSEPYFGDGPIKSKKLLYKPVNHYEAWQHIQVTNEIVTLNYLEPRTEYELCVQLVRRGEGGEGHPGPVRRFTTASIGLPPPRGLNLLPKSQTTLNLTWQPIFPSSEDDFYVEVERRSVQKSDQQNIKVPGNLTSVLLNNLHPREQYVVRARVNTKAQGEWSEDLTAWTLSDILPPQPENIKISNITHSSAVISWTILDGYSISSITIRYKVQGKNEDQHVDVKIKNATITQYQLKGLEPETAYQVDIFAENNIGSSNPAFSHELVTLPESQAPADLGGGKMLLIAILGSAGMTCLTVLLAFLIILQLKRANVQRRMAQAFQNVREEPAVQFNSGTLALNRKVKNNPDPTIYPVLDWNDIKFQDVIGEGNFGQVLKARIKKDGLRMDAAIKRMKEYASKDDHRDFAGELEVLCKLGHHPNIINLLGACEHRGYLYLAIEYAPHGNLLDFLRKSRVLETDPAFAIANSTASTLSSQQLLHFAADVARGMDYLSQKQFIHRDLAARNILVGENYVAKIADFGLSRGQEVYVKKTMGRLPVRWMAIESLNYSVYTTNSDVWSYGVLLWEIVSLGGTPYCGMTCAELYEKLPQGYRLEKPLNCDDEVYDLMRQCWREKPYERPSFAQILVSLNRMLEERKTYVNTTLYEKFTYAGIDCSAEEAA
T27 sequence (Q13237 whole entry): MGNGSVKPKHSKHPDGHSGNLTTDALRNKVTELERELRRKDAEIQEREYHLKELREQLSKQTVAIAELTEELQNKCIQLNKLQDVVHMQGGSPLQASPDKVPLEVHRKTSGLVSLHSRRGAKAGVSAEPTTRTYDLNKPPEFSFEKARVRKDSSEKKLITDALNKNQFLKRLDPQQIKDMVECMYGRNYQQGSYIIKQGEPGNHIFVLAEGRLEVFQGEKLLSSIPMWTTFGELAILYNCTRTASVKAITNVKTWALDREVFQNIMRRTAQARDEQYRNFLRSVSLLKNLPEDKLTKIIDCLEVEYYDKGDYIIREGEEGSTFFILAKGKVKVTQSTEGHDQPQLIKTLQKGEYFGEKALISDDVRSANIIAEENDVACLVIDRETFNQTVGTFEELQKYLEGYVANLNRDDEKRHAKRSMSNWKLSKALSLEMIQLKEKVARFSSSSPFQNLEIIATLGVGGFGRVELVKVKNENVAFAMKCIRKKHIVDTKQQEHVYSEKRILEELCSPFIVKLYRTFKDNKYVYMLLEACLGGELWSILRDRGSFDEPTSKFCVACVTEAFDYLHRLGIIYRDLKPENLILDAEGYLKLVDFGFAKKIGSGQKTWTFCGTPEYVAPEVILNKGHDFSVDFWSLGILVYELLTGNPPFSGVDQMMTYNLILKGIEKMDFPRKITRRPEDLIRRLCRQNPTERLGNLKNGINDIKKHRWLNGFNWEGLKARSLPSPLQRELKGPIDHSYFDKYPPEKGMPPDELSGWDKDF
T22 sequence (Q13233 whole entry): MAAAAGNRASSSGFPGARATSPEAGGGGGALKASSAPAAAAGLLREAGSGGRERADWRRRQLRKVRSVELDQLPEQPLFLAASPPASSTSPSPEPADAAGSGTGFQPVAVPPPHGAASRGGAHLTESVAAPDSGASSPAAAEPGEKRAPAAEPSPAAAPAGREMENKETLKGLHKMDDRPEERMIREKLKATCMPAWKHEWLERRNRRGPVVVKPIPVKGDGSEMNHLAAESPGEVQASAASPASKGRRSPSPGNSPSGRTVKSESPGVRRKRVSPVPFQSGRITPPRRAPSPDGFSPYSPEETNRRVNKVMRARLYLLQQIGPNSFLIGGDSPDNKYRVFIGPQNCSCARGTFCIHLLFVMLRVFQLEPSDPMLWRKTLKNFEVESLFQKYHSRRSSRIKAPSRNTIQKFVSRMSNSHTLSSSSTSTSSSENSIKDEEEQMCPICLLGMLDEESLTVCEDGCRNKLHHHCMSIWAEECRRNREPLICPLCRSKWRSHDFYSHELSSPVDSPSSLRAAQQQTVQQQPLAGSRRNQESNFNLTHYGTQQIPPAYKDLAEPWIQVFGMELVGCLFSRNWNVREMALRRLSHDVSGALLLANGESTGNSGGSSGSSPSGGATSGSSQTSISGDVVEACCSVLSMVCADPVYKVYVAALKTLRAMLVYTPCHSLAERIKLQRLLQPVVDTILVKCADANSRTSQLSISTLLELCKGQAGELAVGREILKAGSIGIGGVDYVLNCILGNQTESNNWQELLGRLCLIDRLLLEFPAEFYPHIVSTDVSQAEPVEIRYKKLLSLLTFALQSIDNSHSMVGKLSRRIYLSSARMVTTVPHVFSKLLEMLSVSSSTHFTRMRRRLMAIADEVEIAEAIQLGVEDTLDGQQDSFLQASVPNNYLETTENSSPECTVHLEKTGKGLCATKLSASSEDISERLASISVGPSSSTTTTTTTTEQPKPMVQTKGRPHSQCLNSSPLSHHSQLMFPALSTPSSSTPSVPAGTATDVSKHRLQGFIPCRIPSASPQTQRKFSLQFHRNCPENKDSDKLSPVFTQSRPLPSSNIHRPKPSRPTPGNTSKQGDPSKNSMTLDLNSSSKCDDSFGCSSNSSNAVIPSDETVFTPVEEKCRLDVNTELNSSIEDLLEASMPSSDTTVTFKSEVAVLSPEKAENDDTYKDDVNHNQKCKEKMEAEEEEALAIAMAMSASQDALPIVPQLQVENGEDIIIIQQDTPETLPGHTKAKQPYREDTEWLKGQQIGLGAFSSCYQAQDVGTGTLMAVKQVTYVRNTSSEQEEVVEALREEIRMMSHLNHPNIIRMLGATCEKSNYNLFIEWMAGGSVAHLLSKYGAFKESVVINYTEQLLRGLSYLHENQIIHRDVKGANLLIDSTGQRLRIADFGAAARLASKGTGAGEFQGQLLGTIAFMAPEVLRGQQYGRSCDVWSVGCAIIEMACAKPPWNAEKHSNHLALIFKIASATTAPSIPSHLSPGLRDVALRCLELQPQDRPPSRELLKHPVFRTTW
T20 sequence (P07948 whole entry): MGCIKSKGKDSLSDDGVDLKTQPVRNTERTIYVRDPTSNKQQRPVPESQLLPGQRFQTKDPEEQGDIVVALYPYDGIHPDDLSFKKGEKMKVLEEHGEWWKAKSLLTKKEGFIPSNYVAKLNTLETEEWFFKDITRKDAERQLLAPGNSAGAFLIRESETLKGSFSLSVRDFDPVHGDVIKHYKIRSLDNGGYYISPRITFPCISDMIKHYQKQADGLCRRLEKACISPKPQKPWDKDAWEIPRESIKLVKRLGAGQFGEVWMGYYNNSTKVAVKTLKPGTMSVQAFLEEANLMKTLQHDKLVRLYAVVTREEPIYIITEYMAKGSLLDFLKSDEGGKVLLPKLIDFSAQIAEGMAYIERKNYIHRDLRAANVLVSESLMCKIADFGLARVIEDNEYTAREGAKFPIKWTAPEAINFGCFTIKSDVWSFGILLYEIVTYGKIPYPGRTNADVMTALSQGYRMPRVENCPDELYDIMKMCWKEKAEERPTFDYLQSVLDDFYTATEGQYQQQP

Cc1cc(Nc2ccc(F)c(CC3(C(=O)N4CCC(F)(CN5CCN(c6ccc(N7CCC(=O)NC7=O)cn6)CC5)CC4)CCN(Cc4cccc(Cl)c4F)CC3)n2)n[nH]1 [SK5527]
remaining binding at 0.1 µM (ADCK4; 100 nM): 92%
remaining binding at 1 µM (ADCK4; 1000 nM): 84%
remaining binding at 0.1 µM (BIKE; 100 nM): 80%
remaining binding at 1 µM (BIKE; 1000 nM): 73%
remaining binding at 0.1 µM (BRSK1; 100 nM): 100%
remaining binding at 1 µM (BRSK1; 1000 nM): 98%
remaining binding at 0.1 µM (BRSK2; 100 nM): 100%
remaining binding at 1 µM (BRSK2; 1000 nM): 100%
remaining binding at 0.1 µM (CAMK1G; 100 nM): 100%
remaining binding at 1 µM (CAMK1G; 1000 nM): 92%
remaining binding at 0.1 µM (CHEK2; 100 nM): 97%
remaining binding at 1 µM (CHEK2; 1000 nM): 89%
remaining binding at 0.1 µM (CLK4; 100 nM): 85%
remaining binding at 1 µM (CLK4; 1000 nM): 100%
remaining binding at 0.1 µM (CSNK2A2; 100 nM): 100%
remaining binding at 1 µM (CSNK2A2; 1000 nM): 100%
remaining binding at 0.1 µM (EGFR(G719S); 100 nM): 94%
remaining binding at 1 µM (EGFR(G719S); 1000 nM): 100%
remaining binding at 0.1 µM (EPHA1; 100 nM): 67%
remaining binding at 1 µM (EPHA1; 1000 nM): 23%
remaining binding at 0.1 µM (EPHA5; 100 nM): 100%
remaining binding at 1 µM (EPHA5; 1000 nM): 93%
remaining binding at 0.1 µM (EPHB1; 100 nM): 96%
remaining binding at 1 µM (EPHB1; 1000 nM): 79%
remaining binding at 0.1 µM (EPHB2; 100 nM): 74%
remaining binding at 1 µM (EPHB2; 1000 nM): 95%
remaining binding at 0.1 µM (ERN1; 100 nM): 100%
remaining binding at 1 µM (ERN1; 1000 nM): 100%
remaining binding at 0.1 µM (FAK; 100 nM): 90%
remaining binding at 1 µM (FAK; 1000 nM): 77%
remaining binding at 0.1 µM (FLT3(D835Y); 100 nM): 69%
remaining binding at 1 µM (FLT3(D835Y); 1000 nM): 72%
remaining binding at 0.1 µM (GAK; 100 nM): 88%
remaining binding at 1 µM (GAK; 1000 nM): 99%
remaining binding at 0.1 µM (HIPK2; 100 nM): 100%
remaining binding at 1 µM (HIPK2; 1000 nM): 91%
remaining binding at 0.1 µM (KIT(D816V); 100 nM): 93%
remaining binding at 1 µM (KIT(D816V); 1000 nM): 97%
remaining binding at 0.1 µM (LYN; 100 nM): 78%
remaining binding at 1 µM (LYN; 1000 nM): 94%
remaining binding at 0.1 µM (MAK; 100 nM): 100%
remaining binding at 1 µM (MAK; 1000 nM): 100%
remaining binding at 0.1 µM (MAP3K1; 100 nM): 93%
remaining binding at 1 µM (MAP3K1; 1000 nM): 60%
remaining binding at 0.1 µM (MEK5; 100 nM): 83%
remaining binding at 1 µM (MEK5; 1000 nM): 61%
remaining binding at 0.1 µM (PAK7; 100 nM): 98%
remaining binding at 1 µM (PAK7; 1000 nM): 74%
remaining binding at 0.1 µM (PDGFRB; 100 nM): 100%
remaining binding at 1 µM (PDGFRB; 1000 nM): 63%
remaining binding at 0.1 µM (PIM2; 100 nM): 60%
remaining binding at 1 µM (PIM2; 1000 nM): 71%
remaining binding at 0.1 µM (PRKG2; 100 nM): 86%
remaining binding at 1 µM (PRKG2; 1000 nM): 78%
remaining binding at 0.1 µM (RIPK5; 100 nM): 97%
remaining binding at 1 µM (RIPK5; 1000 nM): 81%
remaining binding at 0.1 µM (STK33; 100 nM): 100%
remaining binding at 1 µM (STK33; 1000 nM): 97%
remaining binding at 0.1 µM (TIE2; 100 nM): 100%
remaining binding at 1 µM (TIE2; 1000 nM): 100%
remaining binding at 0.1 µM (TRKB; 100 nM): 95%
remaining binding at 1 µM (TRKB; 1000 nM): 47%
remaining binding at 0.1 µM (TSSK1B; 100 nM): 100%
remaining binding at 1 µM (TSSK1B; 1000 nM): 100%
remaining binding at 0.1 µM (TTK; 100 nM): 100%
remaining binding at 1 µM (TTK; 1000 nM): 100%
remaining binding at 0.1 µM (VRK2; 100 nM): 82%
remaining binding at 1 µM (VRK2; 1000 nM): 77%
remaining binding at 0.1 µM (WEE1; 100 nM): 99%
remaining binding at 1 µM (WEE1; 1000 nM): 87%
